Values quoted from earlier work, collected in US8394592B2, “Methods for assessing cancer susceptibility to carcinogens in tobacco products” (The Board of Regents of the University of Texas System, priority 2006, dated 2013).

System: Salmonella
Settings: Ames Salmonella assay; cited from earlier work

SMILES: CN(CCCC(=O)c1cccnc1)N=O [NNK, 4-(methylnitrosamino)-1-(3-pyridyl)-1-butanone]
- mutagenicity: potent mutagen
